Consider 32 compounds from patent US20220324835A1 (Nurix Therapeutics, Inc., priority 2018, published 2022).

Molecules are shown by their SMILES. Bounds are passed on as bounds.

Chain of Cbl-b (Q13191 36-427): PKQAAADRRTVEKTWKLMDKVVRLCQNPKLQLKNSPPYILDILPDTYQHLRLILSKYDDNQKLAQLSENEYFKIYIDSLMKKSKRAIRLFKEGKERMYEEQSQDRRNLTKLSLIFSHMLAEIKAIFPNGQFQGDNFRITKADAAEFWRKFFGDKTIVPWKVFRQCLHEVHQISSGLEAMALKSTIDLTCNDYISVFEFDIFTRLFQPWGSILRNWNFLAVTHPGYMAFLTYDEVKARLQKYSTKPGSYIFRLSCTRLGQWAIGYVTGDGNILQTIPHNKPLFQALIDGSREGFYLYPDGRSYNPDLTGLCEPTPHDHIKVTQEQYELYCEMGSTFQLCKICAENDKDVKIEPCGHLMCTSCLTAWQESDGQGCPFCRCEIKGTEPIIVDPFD

One assay has as its target Cbl-b (Homo sapiens, UniProt Q13191). The experiment in a line: Cbl-b activity assay (Cbl-b inhibition assay), TR-FRET of Cbl-b interaction with UbcH5B-Ub. In kind it is biochemical. The conditions noted are these: * assay buffer containing 50 mM NaCl instead of 100 mM NaCl and 30 nM Src kinase instead of 60 nM; read-out: Cbl-b activity IC50 (μM)*. Here is the method:
The ability of candidate compounds to inhibit Cbl-b activity was measured by monitoring the interaction of Cbl-b with UbcH5B-Ub in the presence of the candidate compound.
Fluorescently labeled UbcH5B-Ub was prepared by conjugating ubiquitin (Ub), labeled at its N-terminus with Bodipy-Fluorescein, to UbcH5B, an E2 enzyme, harboring a cysteine to lysine mutation at position 85. […] After incubation in the presence of the candidate compound, the plate was incubated for an additional 1.5 hours in the presence of 60 nM Src kinase with 1 mM ATP and 5 mM MgCl2 (final concentrations). […] The plate was incubated for 1 hour.
Column marked with an asterisk (*) were tested as described above with assay buffer containing 50 mM NaCl instead of 100 mM NaCl and 30 nM Src kinase instead of 60 nM Src kinase. The resulting data for the Cbl-b binding assay was solvent corrected and double referenced prior to analysis. All data were globally fit to a steady-state affinity and kinetic binding model where applicable). Fit parameters were derived from a 1:1 binding model using the Biacore T200 Evaluation Software V2.0 (GE Healthcare) (Table 2).
On to `Cc1ccc2cc(C(=O)Nc3cccc(C(C)Sc4nncn4C)c3)cnc2c1` (centres unmarked) [Compound 15, 7-Methyl-N-(3-(1-(4-methyl-4H-1,2,4-triazol-3-ylthio)ethyl)phenyl)quinoline-3-carboxamide], for which the IC50 was greater than 10 µM.
The same measure, in the same setting: the figure for `CC(Sc1nncn1C)c1cccc(NC(=O)c2ccc3ccc(Cl)cc3n2)c1` (centres unmarked) [Compound 16, 7-Chloro-N-(3-(1-((4-methyl-4H-1,2,4-triazol-3-yl)thio)ethyl)phenyl)quinoline-2-carboxamide] is 3 to 10 µM; for `CC(Sc1nncn1C)c1cccc(NC(=O)c2ccc3cccnc3n2)c1` (centres unmarked) [Compound 18, N-(3-(1-((4-Methyl-4H-1,2,4-triazol-3-yl)thio)ethyl)phenyl)-1,8-naphthyridine-2-carboxamide] it is 3 to 10 µM.
Regarding `CC(Sc1nncn1C)c1cccc(NC(=O)c2cc3ccncc3cn2)c1` (centres unmarked) [Compound 19, N-(3-(1-((4-Methyl-4H-1,2,4-triazol-3-yl)thio)ethyl)phenyl)-2,7-naphthyridine-3-carboxamide], the IC50 is 3 to 10 µM.
Take `CC(Sc1nncn1C)c1cccc(NC(=O)c2ccc3ncccc3n2)c1` (centres unmarked) [Compound 20, N-(3-(1-((4-Methyl-4H-1,2,4-triazol-3-yl)thio)ethyl)phenyl)-1,5-naphthyridine-2-carboxamide]: the IC50 fell in the range of 3 to 10 µM.
Turning to `Cc1ccc2ccc(C(=O)Nc3cccc(C(C)Sc4nncn4C)c3)nc2n1` (centres unmarked) [Compound 21, 7-Methyl-N-(3-(1-((4-methyl-4H-1,2,4-triazol-3-yl)thio)ethyl)phenyl)-1,8-naphthyridine-2-carboxamide], the IC50 was greater than 10 µM.
Same read-out and setting: for `CC(Sc1nncn1C)c1cccc(NC(=O)c2cc3ccccc3c(=O)[nH]2)c1` (centres unmarked) [Compound 22, N-(3-(1-((4-Methyl-4H-1,2,4-triazol-3-yl)thio)ethyl)phenyl)-1-oxo-1,2-dihydroisoquinoline-3-carboxamide] the value was greater than 10 µM.
The same measure, in the same setting: for `CC(Sc1nncn1C)c1cccc(NC(=O)c2cc3c(cn2)CCCC3)c1` (centres unmarked) [Compound 24, N-(3-(1-((4-Methyl-4H-1,2,4-triazol-3-yl)thio)ethyl)phenyl)-5,6,7,8-tetrahydroisoquinoline-3-carboxamide] the value was 3 to 10 µM.
`CC(Sc1nncn1C)c1cccc(NC(=O)c2cc3ccc(Cl)cc3cn2)c1` (centres unmarked) [Compound 25, 7-Chloro-N-(3-(1-((4-methyl-4H-1,2,4-triazol-3-yl)thio)ethyl)phenyl)isoquinoline-3-carboxamide]: the IC50 was 1 to 3 µM.
With `Cc1ccc(C(=O)Nc2cccc([C@H](C)Sc3nncn3C)c2)cc1C` [Compound 27, (S)-3,4-Dimethyl-N-(3-(1-((4-methyl-4H-1,2,4-triazol-3-yl)thio)ethyl)phenyl)benzamide], the IC50 lay within 3 to 10 µM.
For the compound `Cc1cc(C(=O)Nc2cccc([C@H](C)Sc3nncn3C)c2)ccc1Cl` [Compound 28, (S)-4-Chloro-3-methyl-N-(3-(1-((4-methyl-4H-1,2,4-triazol-3-yl)thio)ethyl)phenyl)benzamide], the IC50 was in the range of 1 to 3 µM.
On the same count and under the same terms, for `Cc1cnc(C(=O)Nc2cccc([C@H](C)Sc3nncn3C)c2)cc1C` [Compound 36, (S)-4,5-Dimethyl-N-(3-(1-((4-methyl-4H-1,2,4-triazol-3-yl)thio)ethyl)phenyl)picolinamide] the value was 1 to 3 µM; for `CC(C)c1ccnc(C(=O)Nc2cccc([C@H](C)Sc3nncn3C)c2)c1` [Compound 37, (S)-4-Isopropyl-N-(3-(1-((4-methyl-4H-1,2,4-triazol-3-yl)thio)ethyl)phenyl)picolinamide], 3 to 10 µM.
On the same count and under the same terms, for `CC(Sc1nccn1C)c1cccc(NC(=O)c2cc3ccccc3cn2)c1` (centres unmarked) [Compound 100, N-[3-[1-(1-methylimidazol-2-yl)sulfanylethyl]phenyl]isoquinoline-3-carboxamide] the value was 3 to 10 µM; for `CC(Sc1nccn1C)c1ccc(F)c(NC(=O)c2cccc(C(F)(F)F)n2)c1` (centres unmarked) [Compound 101, N-[2-fluoro-5-[1-(1-methylimidazol-2-yl)sulfanylethyl]phenyl]-6-(trifluoro-methyl)pyridine-2-carboxamide], 3 to 10 µM.
Take `C[C@@H](Sc1nncn1C)c1ccnc(NC(=O)c2cccc(C(F)(F)F)n2)c1` [Compound 102a, (R)-N-(4-(1-((4-methyl-4H-1,2,4-triazol-3-yl)thio)ethyl)pyridin-2-yl)-6-(trifluoromethyl)picolinamide]: the IC50 lay within 3 to 10 µM.
As for `CC(Sc1nncn1C)c1cc(CO)cc(NC(=O)c2ccc3ccccc3n2)c1` (centres unmarked) [Compound 132, N-(3-(hydroxymethyl)-5-(1-(4-methyl-4H-1,2,4-triazol-3-ylthio)ethyl)phenyl)quinoline-2-carboxamide], the IC50 was greater than 10 µM.
Still for that read-out and setting: for `CC(Sc1nncn1C)c1cccc(N2Cc3ccccc3C2=O)c1` (centres unmarked) [Compound 162, 2-[3-[1-[(4-methyl-1,2,4-triazol-3-yl)sulfanyl]ethyl]phenyl]isoindolin-1-one] the value was 3 to 10 µM.
Take `CC(Sc1nncn1C)c1cccc(N2Cc3c(cccc3C(F)(F)F)C2=O)c1` (centres unmarked) [Compound 166, 2-(3-(1-((4-methyl-4H-1,2,4-triazol-3-yl)thio)ethyl)phenyl)-4-(trifluoromethyl)isoindolin-1-one]: the IC50 lay in the range of 0.301 to 1 µM.
Same read-out and setting: for `CC(Sc1nncn1C)c1ccnc(N2Cc3ccccc3C2=O)c1` (centres unmarked) [Compound 171, 2-(4-(1-((4-methyl-4H-1,2,4-triazol-3-yl)thio)ethyl)pyridin-2-yl)isoindolin-1-one] the value was 3 to 10 µM.

Still in this assay, the particulars now being: assay buffer with 100 mM NaCl, 60 nM Src kinase; read-out: Cbl-b activity IC50.
With `Cn1cnnc1C(F)[C@@](C)(F)c1cccc(N2Cc3c(cccc3C(F)(F)F)C2=O)c1` (stereo in doubt) [Compound 478b, 2-(3-((1R,2S)-1,2-difluoro-1-(4-methyl-4H-1,2,4-triazol-3-yl)propan-2-yl)phenyl)-4-(trifluoromethyl)isoindolin-1-one], the IC50 fell in the range of 1 to 3 µM.
With `C[C@@H](Sc1nncn1C)c1ccc(F)c(N2Cc3c(cccc3C(F)(F)F)C2=O)c1` [Compound 170, 2-[2-Fluoro-5-[(1R)-1-[(4-methyl-1,2,4-triazol-3-yl)sulfanyl]ethyl]phenyl]-4-(trifluoromethyl)isoindolin-1-one], the IC50 is greater than 10 µM.
Same read-out and setting: for `C[C@@H](Cc1n[nH]cc1CO)c1cccc(N2Cc3c(cccc3C(F)(F)F)C2=O)c1` [Compound 271a, (S)-2-(3-(1-(4-(hydroxymethyl)-1H-pyrazol-3-yl)propan-2-yl)phenyl)-4-(trifluoromethyl)isoindolin-1-one] the value was greater than 10 µM; for `Cc1[nH]cnc1C[C@@H](C)c1cccc(N2Cc3c(cccc3C(F)(F)F)C2=O)c1` [Compound 272a, 2-[3-[(2R)-1-(5-methyl-1H-imidazol-4-yl)propan-2-yl]phenyl]-4-(trifluoromethyl)isoindolin-1-one], 0.1 to 0.3 µM.
For `Cc1cnnn1C[C@H](C)c1cccc(NC(=O)c2cccc(C(F)(F)F)n2)c1` [Compound 312b, (R)-N-(3-(1-(5-methyl-1H-1,2,3-triazol-1-yl)propan-2-yl)phenyl)-6-(trifluoromethyl)picolinamide], the IC50 lay in the range of 1 to 3 µM.
Turning to `C[C@H](Cc1nncn1C)c1cc(NC2(C)COC2)nc(N2Cc3c(cccc3C(F)(F)F)C2=O)c1` [Compound 349, 2-{4-[(2R)-1-(4-methyl-4H-1,2,4-triazol-3-yl)propan-2-yl]-6-[(3-methyloxetan-3-yl)amino]pyridin-2-yl}-4-(trifluoromethyl)-2,3-dihydro-1H-isoindol-1-one], the IC50 was 0.301 to 1 µM.
`Cc1conc1C[C@H](C)c1cccc(N2Cc3c(cccc3C(F)(F)F)C2=O)c1` [Compound 367b, (S)-2-(3-(1-(4-methylisoxazol-3-yl)propan-2-yl)phenyl)-4-(trifluoromethyl)isoindolin-1-one]: the IC50 was in the range of 1 to 3 µM.
The same measure, in the same setting: for `C[C@H](Cc1nncs1)c1cccc(N2Cc3c(cccc3C(F)(F)F)C2=O)c1` [Compound 368, (R)-2-(3-(1-(1,3,4-thiadiazol-2-yl)propan-2-yl)phenyl)-4-(trifluoromethyl)isoindolin-1-one] the value was 0.301 to 1 µM; for `C[C@H](Cc1nncn1C)c1cccc(N2Cc3c(ccnc3C(C)(C)F)C2=O)c1` [Compound 373, 4-(2-fluoropropan-2-yl)-2-[3-[(2R)-1-(4-methyl-4H-1,2,4-triazol-3-yl)propan-2-yl]phenyl]-1H,2H,3H-pyrrolo[3,4-c]pyridin-1-one], 0.301 to 1 µM; for `Cn1cnnc1C[C@@H](c1cccc(N2Cc3c(cccc3C(F)(F)F)C2=O)c1)C(F)(F)F` [Compound 471b, (S)-2-(3-(1,1,1-trifluoro-3-(4-methyl-4H-1,2,4-triazol-3-yl)propan-2-yl)phenyl)-4-(trifluoromethyl)isoindolin-1-one], 3 to 10 µM.
As for `Cn1cnnc1[C@@H](F)[C@@](C)(F)c1cccc(N2Cc3c(cc(C4CC4)cc3C(F)(F)F)C2=O)c1` [Compound 481b, 6-cyclopropyl-2-[3-[(1R,2S)-1,2-difluoro-1-(4-methyl-4H-1,2,4-triazol-3-yl)propan-2-yl]phenyl]-4-(trifluoromethyl)-2,3-dihydro-1H-isoindol-1-one], the IC50 lay in the range of 1 to 3 µM.
As to `CCn1cnnc1CC1(c2cccc(NC(=O)c3cc(C)nc(C4CC4)n3)c2)COC1` [Example 705, 2-cyclopropyl-N-(3-{3-[(4-ethyl-1,2,4-triazol-3-yl)methyl]oxetan-3-yl}phenyl)-6-methylpyrimidine-4-carboxamide], the IC50 lay in the range of 3 to 10 µM.
